{"source": "patent US20240307497A1", "about": "“ADIPONECTIN ALONE OR IN COMBINATION WITH EXTRACORPOREAL PHOTOPHERESIS (ECP) FOR IMMUNE RELATED ADVERSE EVENTS OF IMMUNE CHECKPOINT INHIBITORS” (Mallinckrodt Pharmaceuticals Ireland Limited, priority 2022, published 2024)", "key": {"B16.F10 melanoma [1]": {"tested_on": "B16.F10 melanoma", "experiment": "B16.F10 intravenous/metastatic tumor model", "type": "in vivo, C57BL/6 mice", "details": "added to anti-PD1, vs anti-PD1-therapy alone", "method": "C57BL/6 mice were intravenously injected with 10 000 B16.F10luc/GFP melanoma cells in the tail vein and treated with 0.2 mg ICI or the respective isotype control on day 1, 4, 8, 16 and 22. ECP-treated splenocytes were transplanted (107; i.v.) on days 13, 18, and 22, and daily steroids were given (i.p.) from days 13-22. Survival of the mice was monitored until day 60."}, "[2]": {"tested_on": "s.c. B16.F10-OVA melanoma and MC38-OVA^dim colorectal tumors", "experiment": "OVA-transgenic subcutaneous tumor models", "type": "in vivo, mice", "details": "OT-I and CD8^+OVA-Dextramer^+ T-cells, d16", "method": "C57BL/6 recipients were transplanted subcutaneously with 1×106 MC38-OVAdim or 0.5×10^6 MC38 cells into the shorn right flank. Recipients were treated i.p. with 0.2 mg ICI on days 1, 4, 8, 11, 15. ECP-treated splenocytes were transplanted (107; i.v.) on days 6, 11 and 15, daily steroids were given (i.p.) from days 6-15. On day 16, serum samples were harvested by retroorbital bleeding, the mice were euthanized and tumors were resected for further studies.\nCD45.1 recipients were transplanted subcutaneously with 1×106 B16.F10-OVA cells into the shorn right flank and treated i.p. with 0.2 mg ICI on day 1, 4, 8, 11, 15. ECP-treated splenocytes were transplanted (107; i.v.) on days 6, 11 and 15, daily steroids were given (i.p.) from days 6-15. OT-I splenocytes (CD45.2) were activated on day 2 at a density of 2×10^6 cells/mL in the presence of 100 U/mL rmIL-2 (Peprotech) and 0.1 μg/mL OVA257-264 peptide (Sigma) in RPMI supplemented with 10% FCS, 1% P/S, 55 μM beta-Mercaptoethanol (Gibco) and 4 mM glutamine (Gibco). Splenocytes were washed on day 4 and replated with 100 U/mL rmIL-2 at 2×10^6 cells/mL. […]\nFor quantification of adiponectin concentrations in murine serum specimen, blood was harvested by retroorbital bleeding and serum was isolated by centrifugation. Adiponectin concentrations were measured using Adiponectin Mouse ELISA Kit (ThermoFisher) at 20,000-fold dilution."}, "B16.F10 melanoma [3]": {"tested_on": "B16.F10 melanoma", "experiment": "Recall immunity experiment", "type": "in vivo, mice", "details": "T-cells of treated donors into secondary B16.F10 recipients", "source_text": "For evaluation of recall immunity, T-cell donor mice were challenged with 104 B16.F10 melanoma cells (i.v.) and treated with anti-PD1 (days 1, 3, 6, 9, 12), ECP (days 3, 7, 12) or steroids (days 3-12). Secondary recipients were sub-lethally irradiated with 6 Gy TBI and injected i.v. with 104 B16.F10 or 2×10^6 4434 melanoma cells. Splenic T-cells were enriched from T-cell donors on day 13 using the Pan T-cell Isolation Kit II (mouse, Miltenyi) and 1×105 T-cells were transplanted i.v. into secondary recipients on day 3 following tumor injection. Untreated melanoma mice served as control."}, "[4]": {"tested_on": "BRAF^V600E-mutant 4434 melanoma", "experiment": "4434 intravenous tumor model", "type": "in vivo, C57BL/6 mice", "details": "added to anti-PD1, second melanoma model"}, "[5]": {"tested_on": "B16.F10 melanoma with DSS/anti-PD1-mediated colitis", "experiment": "Combined colitis and B16.F10 tumor model", "type": "in vivo, C57BL/6 mice", "method": "C57BL/6 mice were intravenously injected with 10 000 B16.F10luc/GFP melanoma cells in the tail vein and received 3% Dextran Sodium Sulfate (DSS colitis grade, 36-50 kDa; MP Biomedicals) in drinking water from day 9-12, followed by normal drinking water. Mice were treated with 0.2 mg ICI or the respective isotype control on days 1, 4, 8, 16 and 22. ECP-treated splenocytes were transplanted (107; i.v.) on days 13, 18 and 22, daily steroid was given (i.p.) from days 13-22. Mice were imaged with BLI on day 23, organs and serum were harvested on day 24.\nLuciferin (D-luciferin, potassium salt (S)-4,5-Dihydro-2-(6-hydroxy-2-benzothiazolyl)-4-thiazolecarboxylic acid potassium salt; Biosynth) was dissolved in H2O and injected i.p. at a concentration of 150 μg/g body weight. After 10 minutes, the mice were imaged using an IVIS Lumina III in vivo imaging system (PerkinElmer) with an exposure time of 2 minutes. The luciferase signal was quantified in photons per second per mouse. Acquisition, analysis, and visualization of BLI were performed using Living Image Software (PerkinElmer)."}}, "data": [{"smiles": "C[C@]12C=CC(=O)C=C1CC[C@@H]1[C@@H]2[C@@H](O)C[C@@]2(C)[C@H]1CC[C@]2(O)C(=O)CO", "note": "[Steroids, Prednisolone]", "values": [{"measurement": "survival", "setting": "B16.F10 melanoma [1]", "result": "reduced survival"}, {"measurement": "tumor-specific T-cells in the tumor microenvironment", "setting": "[2]", "result": "reduction of adoptively-transferred OT-I T-cells and endogenous CD8^+OVA-Dextramer^+ T-cells"}, {"measurement": "recall-immunity of transferred T-cells", "setting": "B16.F10 melanoma [3]", "result": "this was not the case"}, {"measurement": "survival", "setting": "[4]", "result": "findings were reproduced"}, {"measurement": "colitis in melanoma-bearing mice", "setting": "[5]; d23", "result": "similarly reduced"}, {"measurement": "tumor burden / control of tumor growth", "setting": "[5]; luminescence imaging and melanoma transcripts in lungs", "result": "higher tumor burden"}]}]}
